Laboratory results taken from ChEMBL document CHEMBL6178023 (J Med Chem, 2025).
Converted amounts (≈) assume the structure as drawn. The source made the active and inactive calls. The calls are words filed in the database; no cut-off is given here.

How the values were obtained:
Chikungunya virus [1] = test: Inhibition of N-terminal 6-His/SUMO-tagged CHIKV 181/25 nsP2 extracted from Escherichia coli Rosetta 2 at 200 uM preincubated for 30 mins followed by ATP addition measured after 1 hr by ADP-Glo assay relative to control; conditions: time 90.0 min
[2] = Aqueous solubility of compound in PBS at pH 7.4; assay type: physicochemical
MRC5 = test: Cytotoxicity against human MRC5 cells at 10 to 40 uM by Cell Titer Glo assay; assay type: toxicity, cell-based; conditions: mrc5, 40 µM, dose 10-40 µM
Chikungunya virus [3] = test: Antiviral activity against CHIKV 181/25 expressing nLuc-capsid gene infected in human MRC5 cells assessed as inhibition of viral replication at 40 uM preincubated with cells for 1 hr followed by viral infection measured after 6 hrs post-infection by Nano-glo luciferase assay relative to control; assay type: functional; conditions: for inhibition: time 7.0 hrs; for inhibition at 40 µM: 181/25, MRC5, time 7 hrs
Chikungunya virus [4] = test: Antiviral activity against CHIKV 181/25 expressing nLuc-capsid gene infected in human MRC5 cells assessed as reduction in viral replication preincubated with cells for 1 hr followed by viral infection measured after 6 hrs post-infection by Nano-glo luciferase assay; assay type: functional, organism-based; conditions: 181/25, MRC5, read-out: pEC50 (converted)
[5] = Aqueous solubility of compound; assay type: physicochemical; conditions: buffer
Polyprotein P1234 = Polyprotein P1234 (Chikungunya virus (strain S27-African prototype) (CHIKV), UniProt Q8JUX6); test: Inhibition of N-terminal 6-His/SUMO-tagged CHIKV 181/25 nsP2 extracted from Escherichia coli Rosetta 2 preincubated for 30 mins followed by ATP addition measured after 1 hr by ADP-Glo assay
Chain of Polyprotein P1234 (Q8JUX6 536-1333 limits assumed): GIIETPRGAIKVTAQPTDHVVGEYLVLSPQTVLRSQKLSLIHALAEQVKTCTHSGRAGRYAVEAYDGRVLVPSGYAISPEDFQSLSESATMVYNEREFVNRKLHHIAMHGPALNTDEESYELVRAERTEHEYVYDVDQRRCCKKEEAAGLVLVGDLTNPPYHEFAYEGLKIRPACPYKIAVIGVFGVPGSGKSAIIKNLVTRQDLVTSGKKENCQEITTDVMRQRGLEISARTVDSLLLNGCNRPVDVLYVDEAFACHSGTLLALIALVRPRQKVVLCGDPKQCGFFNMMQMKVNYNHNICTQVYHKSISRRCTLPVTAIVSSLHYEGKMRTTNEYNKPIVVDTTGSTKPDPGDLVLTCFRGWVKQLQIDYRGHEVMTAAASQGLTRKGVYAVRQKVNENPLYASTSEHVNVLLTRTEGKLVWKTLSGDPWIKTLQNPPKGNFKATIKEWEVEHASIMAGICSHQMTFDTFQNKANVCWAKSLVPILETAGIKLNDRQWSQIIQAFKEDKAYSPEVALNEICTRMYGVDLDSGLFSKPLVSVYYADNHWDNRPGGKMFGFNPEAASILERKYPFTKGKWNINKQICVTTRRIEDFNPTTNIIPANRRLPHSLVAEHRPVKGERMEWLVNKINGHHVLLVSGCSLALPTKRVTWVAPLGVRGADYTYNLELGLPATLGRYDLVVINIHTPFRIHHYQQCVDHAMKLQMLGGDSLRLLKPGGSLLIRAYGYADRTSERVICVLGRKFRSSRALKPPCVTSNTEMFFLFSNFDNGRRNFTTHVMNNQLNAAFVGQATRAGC

[6] = Selectivity ratio of pEC50 for antiviral activity against VEEV expressing nLuc to pEC50 for antiviral activity against CHIKV 181/25 expressing nLuc-capsid gene infected in human MRC5 cells; assay type: functional

SMILES	inhibition (Chikungunya virus [1])	solubility kinetic [2] [µM]	Activity (MRC5)	inhibition (Chikungunya virus [3])	inhibition at 40 µM (Chikungunya virus [3]) [%]	EC50 (Chikungunya virus [4]) [µM]	solubility [5] [µM]	IC50 (Polyprotein P1234) [µM]	Ratio [6]
CN(C)S(=O)(=O)NCC1CCOC2(CCN(C(=O)C3(c4ccccc4)CCCO3)CC2)C1 (stereo not given)	inactive	200 (≈ 93.1 µg/mL)	Non-toxic	inactive	–	–	–	–	–
CS(=O)(=O)NCC1CCOC2(CCN(C(=O)C3(c4ccccc4)CCC3)CC2)C1 (stereo not given)	inactive	160 (≈ 67.3 µg/mL)	Non-toxic	inactive	–	–	–	–	–
CS(=O)(=O)NCC1CCOC2(CCN(C(=O)Cc3ccccc3)CC2)C1 (stereo not given)	inactive	200 (≈ 76.1 µg/mL)	Non-toxic	inactive	–	–	–	–	–
CC1(C(=O)N2CCC3(CC2)CC(CNS(C)(=O)=O)CCO3)CCCC1 (stereo not given)	inactive	–	Non-toxic	–	40	> 39.8	–	–	–
CS(=O)(=O)NCC1CCOC2(CCN(C(=O)C3(c4ccccc4)CCCC3)CC2)C1 (stereo not given)	40%	–	Non-toxic	–	–	3.16	240 (≈ 104 µg/mL)	> 39.8	10
CC(C)(C(=O)N1CCC2(CC1)CC(CNS(C)(=O)=O)CCO2)c1ccccc1 (stereo not given)	40%	220 (≈ 89.9 µg/mL)	Non-toxic	–	50	> 39.8	–	> 39.8	–
CN(C)S(=O)(=O)NCC1CCOC2(CCN(C(=O)C(=O)c3ccccc3)CC2)C1 (stereo not given)	inactive	170 (≈ 72 µg/mL)	Non-toxic	inactive	–	–	–	–	–
O=C(N1CCC2(CC1)CC(CN1CCCCS1(=O)=O)CCO2)C1(c2ccc(F)cc2)CCCC1 (stereo not given)	80%	190 (≈ 93.6 µg/mL)	Non-toxic	–	90	> 39.8	–	> 39.8	–
O=C(NCC1CCOC2(CCN(C(=O)C3(c4ccccc4)CCCC3)CC2)C1)c1ccccn1 (stereo not given)	90%	190 (≈ 87.7 µg/mL)	Non-toxic	–	–	1.58	–	> 39.8	–
CC(C)NC(=O)NCC1CCOC2(CCN(C(=O)C3(c4ccccc4)CCCC3)CC2)C1 (stereo not given)	50%	180 (≈ 79.5 µg/mL)	Non-toxic	–	–	15.8	–	> 39.8	–
O=C(N1CCC2(CC1)CC(Oc1ccccn1)CCO2)C1(c2ccccc2)CCCC1 (stereo not given)	60%	20 (≈ 8.41 µg/mL)	Non-toxic	–	–	1.26	–	> 39.8	–
CN(C)S(=O)(=O)NCC1CCOC2(CCN(C(=O)C3(c4ccncc4)CCCC3)CC2)C1 (stereo not given)	inactive	–	Non-toxic	inactive	–	–	–	–	–
CCCCCCOc1ccc(C(=O)NCC2CCOC3(CCN(C(=O)C4(c5ccccc5)CCCC4)CC3)C2)cc1 (stereo not given)	inactive	< 1	Non-toxic	–	70	> 39.8	–	–	–
Cc1ccnc(OC2CCOC3(CCN(C(=O)C4(c5ccccc5)CCCC4)CC3)C2)c1 (stereo not given)	40%	–	Non-toxic	–	–	12.6	14 (≈ 6.08 µg/mL)	> 39.8	10
NCC1(O)CCOC2(CCN(C(=O)C3(c4ccccc4)CCCC3)CC2)C1 (stereo not given)	inactive	170 (≈ 63.3 µg/mL)	Non-toxic	–	50	> 39.8	–	–	–
CS(=O)(=O)NCC1CCOC2(CCN(C(=O)C3(c4ccccc4)CCCCC3)CC2)C1 (stereo not given)	80%	230 (≈ 103 µg/mL)	Non-toxic	–	–	15.8	–	> 39.8	–
CNCC1CCOC2(CCN(C(=O)C3(c4ccccc4)CCCC3)CC2)C1 (stereo not given)	inactive	170 (≈ 63 µg/mL)	Non-toxic	–	60	> 39.8	–	–	–
CN(C)S(=O)(=O)NCC1CCOC2(CCN(C(=O)C3(c4ccccc4)CCCC3)CC2)C1 (stereo not given)	90%	200 (≈ 92.7 µg/mL)	Non-toxic	–	–	2.51	–	> 39.8	–
CN(C)S(=O)(=O)NCC1CCOC2(CCN(C(=O)C3(c4cccnc4)CCCC3)CC2)C1 (stereo not given)	inactive	–	Non-toxic	–	50	> 39.8	–	–	–
O=C(N1CCC2(CC1)CC(CNS(=O)(=O)c1ccccc1)CCO2)C1(c2ccccc2)CCCC1 (stereo not given)	40%	1 (≈ 0.497 µg/mL)	Non-toxic	–	–	3.98	–	> 39.8	–
CC(C)C(=O)NCC1CCOC2(CCN(C(=O)C3(c4ccccc4)CCCC3)CC2)C1 (stereo not given)	80%	170 (≈ 72.5 µg/mL)	Non-toxic	–	–	3.98	–	> 39.8	–
CS(=O)(=O)NCC1CCOC2(CCN(C(=O)C3(c4ccc(Cl)cc4)CCCC3)CC2)C1 (stereo not given)	inactive	–	Non-toxic	–	70	> 39.8	–	–	–
CN(CC1CCOC2(CCN(C(=O)C3(c4ccccc4)CCCC3)CC2)C1)C(=O)c1ccccn1 (stereo not given)	80%	180 (≈ 85.6 µg/mL)	Non-toxic	–	–	5.01	–	> 39.8	–
CS(=O)(=O)NCC1CCOC2(CCN(C(=O)C3(c4ccccc4)CCOCC3)CC2)C1 (stereo not given)	inactive	190 (≈ 85.6 µg/mL)	Non-toxic	inactive	–	–	–	–	–
CC(C)(C)NC(=O)NCC1CCOC2(CCN(C(=O)C3(c4ccccc4)CCCC3)CC2)C1 (stereo not given)	80%	170 (≈ 77.5 µg/mL)	Non-toxic	–	–	10	–	> 39.8	–
O=C(NCC1CCOC2(CCN(C(=O)C3(c4ccccc4)CCCC3)CC2)C1)C1CC1 (stereo not given)	80%	160 (≈ 67.9 µg/mL)	Non-toxic	–	–	3.98	–	> 39.8	–
CN(C)S(=O)(=O)NCC1CCOC2(CCN(C(=O)C3(c4ccccn4)CCCC3)CC2)C1 (stereo not given)	40%	–	Non-toxic	–	70	> 39.8	–	> 39.8	–
Cc1ccc(C2(C(=O)N3CCC4(CC3)CC(CNS(C)(=O)=O)CCO4)CCCC2)cc1 (stereo not given)	inactive	–	Non-toxic	inactive	–	–	–	–	–
COc1ccc(C2(C(=O)N3CCC4(CC3)CC(CNS(C)(=O)=O)CCO4)CCCC2)cc1 (stereo not given)	inactive	–	Non-toxic	inactive	–	–	–	–	–
NCC1CCOC2(CCN(C(=O)C3(c4ccccc4)CCCC3)CC2)C1 (stereo not given)	inactive	160 (≈ 57 µg/mL)	Non-toxic	–	60	> 39.8	–	–	–
